Experimental data as given in ChEMBL document CHEMBL1201862, “PubChem BioAssay data set” (2004).
Active and inactive are the calls of the source.

Tests used:
Coagulation factor XII = molecular target: T1, Coagulation factor XII (Homo sapiens, UniProt P00748); type: functional;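 note: activated factor XIIa alpha cleaving a fluorogenic AMC peptide substrate; inhibitor potency from loss of enzyme activity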
T1 sequence (P00748 whole entry): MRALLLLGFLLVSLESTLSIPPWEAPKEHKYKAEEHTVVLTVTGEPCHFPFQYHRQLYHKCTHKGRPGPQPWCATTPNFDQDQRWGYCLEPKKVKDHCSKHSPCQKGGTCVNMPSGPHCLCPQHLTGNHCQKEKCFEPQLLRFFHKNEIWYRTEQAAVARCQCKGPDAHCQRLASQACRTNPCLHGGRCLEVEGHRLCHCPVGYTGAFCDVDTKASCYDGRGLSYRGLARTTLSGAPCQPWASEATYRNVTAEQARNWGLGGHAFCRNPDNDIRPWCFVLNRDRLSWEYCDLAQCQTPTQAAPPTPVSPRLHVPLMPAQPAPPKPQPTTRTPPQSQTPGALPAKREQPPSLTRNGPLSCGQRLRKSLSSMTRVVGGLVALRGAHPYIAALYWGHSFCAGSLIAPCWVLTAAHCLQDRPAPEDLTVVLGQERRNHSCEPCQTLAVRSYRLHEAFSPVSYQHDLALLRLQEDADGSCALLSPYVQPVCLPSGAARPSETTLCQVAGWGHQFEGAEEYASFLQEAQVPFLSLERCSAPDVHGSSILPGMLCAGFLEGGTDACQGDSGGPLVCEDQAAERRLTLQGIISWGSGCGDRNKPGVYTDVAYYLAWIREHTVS

Cytochrome P450 2D6 = Cytochrome P450 2D6 (Homo sapiens, UniProt P10635);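 note: CYP2D6 member of a cytochrome P450 panel assay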
Cytochrome P450 3A4 = Cytochrome P450 3A4 (Homo sapiens, UniProt P08684);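 note: CYP3A4 tested as one member of a cytochrome P450 panel screen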
Cytochrome P450 2C9 = Cytochrome P450 2C9 (Homo sapiens, UniProt P11712)
Sequence of Cytochrome P450 2C9 (P11712 whole entry): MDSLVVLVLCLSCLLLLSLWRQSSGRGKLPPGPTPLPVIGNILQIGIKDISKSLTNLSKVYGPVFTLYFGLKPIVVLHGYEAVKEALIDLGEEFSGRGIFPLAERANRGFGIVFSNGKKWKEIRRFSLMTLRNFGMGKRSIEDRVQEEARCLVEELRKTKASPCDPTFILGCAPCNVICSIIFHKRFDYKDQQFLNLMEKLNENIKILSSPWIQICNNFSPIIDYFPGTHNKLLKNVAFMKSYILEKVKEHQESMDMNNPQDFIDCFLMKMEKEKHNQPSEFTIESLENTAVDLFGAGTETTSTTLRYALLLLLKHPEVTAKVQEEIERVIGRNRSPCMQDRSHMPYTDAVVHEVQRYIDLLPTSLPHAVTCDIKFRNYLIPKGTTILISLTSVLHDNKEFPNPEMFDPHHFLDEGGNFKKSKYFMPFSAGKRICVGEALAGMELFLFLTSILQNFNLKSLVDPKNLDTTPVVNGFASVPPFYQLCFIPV

Sequence of Cytochrome P450 3A4 (P08684 whole entry): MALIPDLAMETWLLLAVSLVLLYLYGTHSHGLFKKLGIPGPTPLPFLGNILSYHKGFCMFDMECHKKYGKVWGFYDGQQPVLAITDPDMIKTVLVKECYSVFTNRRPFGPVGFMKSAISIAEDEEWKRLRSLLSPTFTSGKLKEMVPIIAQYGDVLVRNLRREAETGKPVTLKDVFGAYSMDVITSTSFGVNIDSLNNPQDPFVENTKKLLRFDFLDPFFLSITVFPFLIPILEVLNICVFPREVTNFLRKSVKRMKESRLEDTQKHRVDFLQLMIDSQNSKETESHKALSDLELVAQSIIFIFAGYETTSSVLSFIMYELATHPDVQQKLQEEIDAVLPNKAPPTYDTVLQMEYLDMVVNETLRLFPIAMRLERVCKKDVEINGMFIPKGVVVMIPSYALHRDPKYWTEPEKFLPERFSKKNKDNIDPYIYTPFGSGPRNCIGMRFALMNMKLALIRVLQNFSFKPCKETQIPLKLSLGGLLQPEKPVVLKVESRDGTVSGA
Sequence of Cytochrome P450 2D6 (P10635 whole entry): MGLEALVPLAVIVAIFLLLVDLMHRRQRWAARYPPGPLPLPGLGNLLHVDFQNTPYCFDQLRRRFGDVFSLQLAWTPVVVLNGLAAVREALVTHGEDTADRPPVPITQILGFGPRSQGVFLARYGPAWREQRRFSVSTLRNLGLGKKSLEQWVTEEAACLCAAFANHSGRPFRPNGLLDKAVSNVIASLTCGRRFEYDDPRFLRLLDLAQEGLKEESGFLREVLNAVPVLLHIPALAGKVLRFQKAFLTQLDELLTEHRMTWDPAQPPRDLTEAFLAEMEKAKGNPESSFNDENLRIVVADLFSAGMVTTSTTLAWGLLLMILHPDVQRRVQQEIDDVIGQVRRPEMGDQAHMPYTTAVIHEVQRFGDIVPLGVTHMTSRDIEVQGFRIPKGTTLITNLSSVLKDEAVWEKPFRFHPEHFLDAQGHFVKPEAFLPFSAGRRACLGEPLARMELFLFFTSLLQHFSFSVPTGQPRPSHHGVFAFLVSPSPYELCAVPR

## CCCC(=O)/N=C1\SC2CS(=O)(=O)CC2N1c1ccc(CC)cc1 (stereo unspecified)
Coagulation factor XII
  IC50: > 50 µM (inactive)
Cytochrome P450 2D6
  AC50: 15.8 µM (inconclusive)
Cytochrome P450 3A4
  AC50: 12.6 µM (inconclusive)
Cytochrome P450 2C9
  AC50: 10 µM (inconclusive)

## CS(=O)(=O)N(Cc1ccccc1)c1ccc(C(=O)NC2CCCCC2O)cc1 (stereo unspecified)
Coagulation factor XII
  IC50: > 50 µM (inactive)

## CC(C)OC(=O)c1cccc(NC(=O)CSc2nnc(N)s2)c1
Coagulation factor XII
  IC50: > 50 µM (inactive)

## COc1ccc(CN(C)C(=S)Nc2ccc(Cl)cc2)cc1
Coagulation factor XII
  IC50: > 50 µM (inactive)

## CCN(CC)c1ccc(/C=N/NS(=O)(=O)c2cccc([N+](=O)[O-])c2)cc1
Coagulation factor XII
  IC50: > 50 µM (inactive)

## Cc1nn(CC(=O)N2CCc3ccccc3C2)c(C)c1[N+](=O)[O-]
Coagulation factor XII
  IC50: > 50 µM (inactive)

## CCCn1cc(CN2CCCC(C(=O)c3cccc(OC)c3)C2)c(C)n1 (stereo unspecified)
Coagulation factor XII
  IC50: > 50 µM (inactive)

## CCC(C)[C@H](NC(=O)Nc1ccc(C(C)=O)cc1)C(=O)OC (stereo partly specified)
Coagulation factor XII
  IC50: > 50 µM (inactive)
